According to PubChem BioAssay (NCI):
Several values for one entry are separate records, joined by “and”; a condition that tells them apart may be missing. Equal values may be shown once.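 These data come from cells grown in 96-well plates and exposed to compound for 48 hours at five concentrations. GI50 marks 50% less growth. TGI marks complete inhibition of growth.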

What was measured:
Assay in all cases: growth of human tumour cells (NCI), 48 h
786-0 renal = test system: 786-0 renal
A498 renal = test system: A498 renal
A549 NSCLC = test system: A549 NSCLC
ACHN renal = test system: ACHN renal
BT-549 breast = test system: BT-549 breast
CAKI-1 renal = test system: CAKI-1 renal
CCRF-CEM leukemia = test system: CCRF-CEM leukemia
COLO 205 colon = test system: COLO 205 colon
EKVX NSCLC = test system: EKVX NSCLC
HCC-2998 colon = test system: HCC-2998 colon
HCT-116 colon = test system: HCT-116 colon
HCT-15 colon = test system: HCT-15 colon
HL-60(TB) leukemia = test system: HL-60(TB) leukemia
HOP-62 NSCLC = test system: HOP-62 NSCLC
HOP-92 NSCLC = test system: HOP-92 NSCLC
HS 578T breast = test system: HS 578T breast
HT29 colon = test system: HT29 colon
IGROV1 ovarian = test system: IGROV1 ovarian
K-562 leukemia = test system: K-562 leukemia
LOX IMVI melanoma = test system: LOX IMVI melanoma
M14 melanoma = test system: M14 melanoma
MALME-3M melanoma = test system: MALME-3M melanoma
MCF7 breast = test system: MCF7 breast
MDA-MB-231 breast = test system: MDA-MB-231 breast
MDA-MB-435 = test system: MDA-MB-435
MOLT-4 leukemia = test system: MOLT-4 leukemia
NCI-H226 lung = test system: NCI-H226 lung
NCI-H23 lung = test system: NCI-H23 lung
NCI-H460 lung = test system: NCI-H460 lung
NCI-H522 lung = test system: NCI-H522 lung
NCI/ADR-RES ovarian = test system: NCI/ADR-RES ovarian
OVCAR-4 ovarian = test system: OVCAR-4 ovarian
OVCAR-5 ovarian = test system: OVCAR-5 ovarian
OVCAR-8 ovarian = test system: OVCAR-8 ovarian
PC-3 prostate = test system: PC-3 prostate
RPMI-8226 leukemia = test system: RPMI-8226 leukemia
RXF 393 renal = test system: RXF 393 renal
SF-295 CNS = test system: SF-295 CNS
SF-539 CNS = test system: SF-539 CNS
SK-MEL-2 melanoma = test system: SK-MEL-2 melanoma
SK-MEL-28 melanoma = test system: SK-MEL-28 melanoma
SK-MEL-5 melanoma = test system: SK-MEL-5 melanoma
SK-OV-3 ovarian = test system: SK-OV-3 ovarian
SN12C renal = test system: SN12C renal
SNB-19 CNS = test system: SNB-19 CNS
SNB-75 CNS = test system: SNB-75 CNS
SR leukemia = test system: SR leukemia
SW-620 colon = test system: SW-620 colon
T-47D breast = test system: T-47D breast
TK-10 renal = test system: TK-10 renal
U251 CNS = test system: U251 CNS
UACC-257 melanoma = test system: UACC-257 melanoma
UACC-62 melanoma = test system: UACC-62 melanoma
UO-31 renal = test system: UO-31 renal

COc1cc(C)c(-c2ccc(=O)c(OC)cc2C)c(OC)c1OC
GI50 (786-0 renal): > 100 µM and 46.2 µM | TGI (786-0 renal): > 100 µM | GI50 (A498 renal): > 100 µM and 14 µM | TGI (A498 renal): > 100 µM and 52.5 µM | GI50 (A549 NSCLC): > 100 µM and 35.5 µM | TGI (A549 NSCLC): > 100 µM | GI50 (ACHN renal): > 100 µM and 85.1 µM | TGI (ACHN renal): > 100 µM | GI50 (BT-549 breast): > 100 µM and 15.2 µM | TGI (BT-549 breast): > 100 µM | GI50 (CAKI-1 renal): > 100 µM and 19.5 µM | TGI (CAKI-1 renal): > 100 µM | GI50 (CCRF-CEM leukemia): > 100 µM and 29.7 µM | TGI (CCRF-CEM leukemia): > 100 µM | GI50 (COLO 205 colon): > 100 µM and 21.8 µM | TGI (COLO 205 colon): > 100 µM and 58.6 µM | GI50 (EKVX NSCLC): > 100 µM and 66.5 µM | TGI (EKVX NSCLC): > 100 µM | GI50 (HCC-2998 colon): > 100 µM and 33 µM | TGI (HCC-2998 colon): > 100 µM | GI50 (HCT-116 colon): > 100 µM and 25 µM | TGI (HCT-116 colon): > 100 µM | GI50 (HCT-15 colon): > 100 µM and 12.9 µM | TGI (HCT-15 colon): > 100 µM | GI50 (HL-60(TB) leukemia): > 100 µM and 21 µM | TGI (HL-60(TB) leukemia): > 100 µM and 94.6 µM | GI50 (HOP-62 NSCLC): > 100 µM and 34.3 µM | TGI (HOP-62 NSCLC): > 100 µM | GI50 (HOP-92 NSCLC): > 100 µM and 10.2 µM | TGI (HOP-92 NSCLC): > 100 µM | GI50 (HS 578T breast): > 100 µM and 15.9 µM | TGI (HS 578T breast): > 100 µM and 64.1 µM | GI50 (HT29 colon): > 100 µM and 25.2 µM | TGI (HT29 colon): > 100 µM and 93.5 µM | GI50 (IGROV1 ovarian): > 100 µM and 47.3 µM | TGI (IGROV1 ovarian): > 100 µM | TGI (K-562 leukemia): > 100 µM | TGI (LOX IMVI melanoma): > 100 µM | GI50 (M14 melanoma): > 100 µM and 17.3 µM | TGI (M14 melanoma): > 100 µM | GI50 (MALME-3M melanoma): > 100 µM and 37.8 µM | TGI (MALME-3M melanoma): > 100 µM | GI50 (MCF7 breast): > 100 µM and 25.3 µM | TGI (MCF7 breast): > 100 µM | GI50 (MDA-MB-231 breast): > 100 µM and 23.5 µM | TGI (MDA-MB-231 breast): > 100 µM | TGI (MDA-MB-435): > 100 µM and 15.3 µM | GI50 (MOLT-4 leukemia): > 100 µM and 36 µM | TGI (MOLT-4 leukemia): > 100 µM | GI50 (NCI-H226 lung): > 100 µM and 86.5 µM | TGI (NCI-H226 lung): > 100 µM | GI50 (NCI-H23 lung): > 100 µM and 46.9 µM | TGI (NCI-H23 lung): > 100 µM | GI50 (NCI-H460 lung): > 100 µM and 31.7 µM | TGI (NCI-H460 lung): > 100 µM | GI50 (NCI-H522 lung): > 100 µM and 20.2 µM | TGI (NCI-H522 lung): > 100 µM and 70.1 µM | GI50 (NCI/ADR-RES ovarian): > 100 µM and 27.9 µM | TGI (NCI/ADR-RES ovarian): > 100 µM | GI50 (OVCAR-4 ovarian): > 100 µM and 92.2 µM | TGI (OVCAR-4 ovarian): > 100 µM | GI50 (OVCAR-5 ovarian): > 100 µM and 41.8 µM | TGI (OVCAR-5 ovarian): > 100 µM | GI50 (OVCAR-8 ovarian): > 100 µM and 35.3 µM | TGI (OVCAR-8 ovarian): > 100 µM | GI50 (PC-3 prostate): > 100 µM and 31.9 µM | TGI (PC-3 prostate): > 100 µM | GI50 (RPMI-8226 leukemia): > 100 µM and 41.4 µM | TGI (RPMI-8226 leukemia): > 100 µM | GI50 (RXF 393 renal): > 100 µM and 21.1 µM | TGI (RXF 393 renal): > 100 µM and 76.5 µM | GI50 (SF-295 CNS): > 100 µM and 22.9 µM | TGI (SF-295 CNS): > 100 µM | GI50 (SF-539 CNS): > 100 µM and 25.8 µM | TGI (SF-539 CNS): > 100 µM | GI50 (SK-MEL-2 melanoma): > 100 µM and 20.5 µM | TGI (SK-MEL-2 melanoma): > 100 µM | GI50 (SK-MEL-28 melanoma): > 100 µM | TGI (SK-MEL-28 melanoma): > 100 µM | GI50 (SK-MEL-5 melanoma): > 100 µM and 46.1 µM | TGI (SK-MEL-5 melanoma): > 100 µM | GI50 (SK-OV-3 ovarian): > 100 µM and 27.1 µM | TGI (SK-OV-3 ovarian): > 100 µM | GI50 (SN12C renal): > 100 µM and 38 µM | TGI (SN12C renal): > 100 µM | GI50 (SNB-19 CNS): > 100 µM and 29.3 µM | TGI (SNB-19 CNS): > 100 µM | GI50 (SNB-75 CNS): 39.4 µM and 5.4 µM | TGI (SNB-75 CNS): > 100 µM and 43.4 µM | TGI (SR leukemia): > 100 µM | GI50 (SW-620 colon): > 100 µM and 27.9 µM | TGI (SW-620 colon): > 100 µM | GI50 (T-47D breast): > 100 µM and 26.3 µM | TGI (T-47D breast): > 100 µM | GI50 (TK-10 renal): > 100 µM | TGI (TK-10 renal): > 100 µM | GI50 (U251 CNS): > 100 µM and 30.9 µM | TGI (U251 CNS): > 100 µM | GI50 (UACC-257 melanoma): > 100 µM and 71.3 µM | TGI (UACC-257 melanoma): > 100 µM | GI50 (UACC-62 melanoma): > 100 µM and 16.6 µM | TGI (UACC-62 melanoma): > 100 µM | GI50 (UO-31 renal): > 100 µM and 45.4 µM | TGI (UO-31 renal): > 100 µM
